Literature values as cited in patent US4987122A, “Peptide compounds and medical method of use thereof” (Nycomed AS, priority 1986, dated 1991).
[ ]: non-standard residue; d: D form. pGlu = O=C1CC[C@@H](C(=O)O)N1

Legend:
granulopoiesis = details: as reported in the European patent application
[1] = subjected to freezing and thawing; reversed by treatment with mercaptoethanol

Substance	activity of the synthetic compound (granulopoiesis)	activity after freezing and thawing [1]
pyroGlu-Asp-Asp-Cys-LysOH ([pGlu]DDCK-OH; SMILES NCCCC[C@H](NC(=O)[C@H](CS)NC(=O)[C@H](CC(=O)O)NC(=O)[C@H](CC(=O)O)NC(=O)[C@@H]1CCC(=O)N1)C(=O)O) [synthetic compound with the structure postulated for the natural granulopoiesis factor]	inactive	
pyroGlu-Glu-Asp-Cys-LysOH ([pGlu]EDCK-OH; SMILES NCCCC[C@H](NC(=O)[C@H](CS)NC(=O)[C@H](CC(=O)O)NC(=O)[C@H](CCC(=O)O)NC(=O)[C@@H]1CCC(=O)N1)C(=O)O)		stimulatory activity
